These results are taken from patent US20090022806A1, “Nanoparticle and polymer formulations for thyroid hormone analogs, antagonists and formulations and uses thereof” (priority 2006, published 2009).

Test [1] concerns chick chorioallantoic membrane (CAM). Put plainly: Chick chorioallantoic membrane (CAM) assay of angiogenesis. The format is in vivo. The conditions noted are these: 10^−7-10^−9 M. The procedure:
Chorioallantoic membrane (CAM) Model of Angiogenesis: In vivo Neovascularization was examined by methods described previously. 9-12 Ten-day-old chick embryos were purchased from SPAFAS (Preston, Conn.) and incubated at 37° C. with 55% relative humidity. A hypodermic needle was used to make a small hole in the shell concealing the air sac, and a second hole was made on the broad side of the egg, directly over an avascular portion of the embryonic membrane that was identified by candling. A false air sac was created beneath the second hole by the application of negative pressure at the first hole, causing the CAM to separate from the shell. A window approximately 1.0 cm 2 was cut in the shell over the dropped CAM with a small-crafts grinding wheel (Dremel, division of Emerson Electric Co.), allowing direct access to the underlying CAM. FGF2 (1 μg/mL) was used as a standard proangiogenic agent to induce new blood vessel branches on the CAM of 10-day-old embryos. Sterile disks of No. 1 filter paper (Whatman International) were pretreated with 3 mg/mL cortisone acetate and 1 mmol/L PTU and air dried under sterile conditions. Thyroid hormone, hormone analogues, FGF2 or control solvents, and inhibitors were then applied to the disks and the disks allowed to dry. The disks were then suspended in PBS and placed on growing CAMs. […] At 24 hours, the MAPK cascade inhibitor PD 98059 was also added to CAMs topically by means of the filter disks.
After incubation at 37° C. with 55% relative humidity for 3 days, the CAM tissue directly beneath each filter disk was resected from control and treated CAM samples. Tissues were washed 3× with PBS, placed in 35-mm Petri dishes (Nalge Nunc), and examined under an SV6 stereomicroscope (Zeiss) at ×50 magnification. Digital images of CAM sections exposed to filters were collected using a 3-charge-coupled device color video camera system (Toshiba) and analyzed with Image-Pro software (Media Cybernetics). The number of vessel branch points contained in a circular region equal to the area of each filter disk were counted. One image was counted in each CAM preparation, and findings from 8 to 10 CAM preparations were analyzed for each treatment condition (thyroid hormone or analogues, FGF2, FGF2 antibody, PD 98059). In addition, each experiment was performed 3 times. The resulting angiogenesis index is the mean±SEM of new branch points in each set of samples.
Ten-day-old chick embryos were purchased £tom SPAFAS (Preston, Conn.) and were incubated at 37° C. with 55% relative humidity. A hypodermic needle was used to make a small hole in the blunt end of the egg and a second hole was made on the broad side of the egg, directly over an avascular portion of the embryonic membrane. Mild suction was applied to the first hole to displace the air sac and drop the CAM away from the shell. Using a Dremel model craft drill (Dremel, Racine, Wis.), a approx. 1.0 cm^2 window was cut in the shell over the false air sac, allowing access to the CAM. Sterile disks of No. 1 filter paper (Whatman, Clifton, N.J.) were pretreated with 3 mg/ml cortisone acetate and 1 mMm propylthiouracil and air dried under sterile conditions. […] The disks were then suspended in PBS and placed on growing CAMS. After incubation for 3 days, the CAM beneath the filter disk was resected and rinsed with PBS. Each membrane was placed in a 35 mm Petri dish and examined under an SV6 stereo-microscope at 50× magnification. Digital images were captured and analyzed with Image-Pro software (Mediacybemetics). The number of vessel branch points contained in a circular region equal to the filter disk were counted. One image from each of 8-10 CAM preparations for each treatment condition was counted, and in addition each experiment was performed 3 times.
Ten-day-old chick embryos were purchased from SPAFAS (Preston, Conn.) and were incubated at 37° C. with 55% relative humidity. Chick CAM assays were performed as previously described.

For test [2], the system named is phosphorylated ERK1/2 in ECV304 endothelial cells. The experiment in a line: MAPK (ERK1/2) activation in ECV304 cells, nuclear pERK1/2 immunoblot. To be noted: T4 10^−7 mol/L, 15 minutes to 6 hours. The format is cell-based. The procedure: ECV304 endothelial cells were cultured in M199 medium with 0.25% hormone-depleted serum 13 for 2 days. […] Nuclear fractions were pre-pared from all samples by our method reported previously, the proteins separated by polyacrylamide gel electrophoresis, and transferred to membranes for immunoblotting with antibody to phosphorylated ERK 1/2.

In test [3] the test system is EC migration toward the extracellular matrix protein vitronectin. The experiment in a line: Cellular migration assay toward vitronectin (chemotaxis chamber). It counts as cell-based. To be noted: hormone 0.1 uM in upper chamber, vitronectin 25 ug in lower chamber.
Description: These assays were performed using a Neuroprobe 96 well disposable chemotaxis chamber with an 8 μm pore size. This chamber allowed for quantitation of cellular migration towards a gradient of either vitronectin or osteopontin. Cultured cells were removed following a standardized method using EDTA/Trypsin (0.01%/0.025%). Following removal, the cells were washed twice and resuspended (2×10^6/ml) in EBM (Endothelial cell basal media, Clonetics Inc.). Add either vitronectin or osteopontin (33 μl) at 0.0125-100 μg/ml to the lower wells of a disposable chemotaxis chamber, and then assemble using the preframed filter. The cell suspension (45 μl) was added to a polypropylene plate containing 5 μl of test agent at different concentrations and incubated for 10 minutes at 22° C. Add 25 μl of cell/test agent suspension to the upper filter wells then incubate overnight (22 hours at 37° C.) in a humidified cell culture incubator. After the overnight incubation, non-migrated cells and excess media were gently removed using a 12 channel pipette and a cell scraper. The filters were then washed twice in PBS (no Ca^+2 or Mg^+2) and fixed with 1% formaldehyde. Membranes of migrated cells were permeated with Triton X-100 (0.2%) then washed 2-3 times with PBS. […] Chemotaxis was quantitatively determined by fluorescence detection using a Cytofluor II (530 excitation/590 emission).
Test [4] addresses T1, purified αVβ3 integrin (Homo sapiens, UniProt P05106+P06756).
T1 construct: purchased
Put plainly: Radioligand binding assay, [125I]-T4 to purified integrin. The procedure:
Two μg of purified αVβ3 was mixed with indicated concentrations of test compounds and allowed to incubate for 30 min at room temperature. […] The samples were mixed with sample buffer (50% glycerol, 0.1M Tris-HCl, pH 6.8, and bromophenol blue) and runout on a 5% basic-native gel for 24 h at 45 mA in the cold. The apparatus was disassembled and the gels were placed on filter paper, wrapped in plastic wrap, and exposed to film. Band intensity was determined using the VersaDoc 5000 Imaging system.

In test [5] the test system is human dermal fibroblast cells. Put plainly: In vitro 3D wound healing assay of human dermal fibroblast cells. The format is cell-based. To be noted: T4 between 0.1 μM and 1.0 μM. The procedure: Step 1: Prepare contracted collagen gels: • 1) Coat 24-well plate with 350 ul 2% BSA at RT for 2 hr, • 2) 80% confluent NHDF (normal human dermal fibroblast cells, Passage 5-9) are trypsinized and neutralized with growth medium, centrifuge and wash once with PBS • 3) Prepare collagen-cell mixture, mix gently and always on ice:
• 4) Aspire 2% BSA from 24 well plate, add collagen-cell mixture 350 ul/well, and incubate the plate in 37° C. CO2 incubator. • 5) After 1 hr, add DMEM+5% FBS medium 0.5 ml/well, use a 10 ul tip Detach the collagen gel from the edge of each well, then incubate for 2 days. The fibroblast cells will contract the collagen gel Step 2: Prepare 3D fibrin wound clot and embed wounded collagen culture • 1) Prepare fibrinogen solution (1 mg/ml) with or without testing regents. 350 ul fibrinogen solution for each well in eppendorf tube.
• 2) Cut each contracted collagen gel from middle with scissors. Wash the gel with PBS and transfer the gel to the center of each well of 24 well plate • 3) Add 1.5 ul of human thrombin (0.25 U/ul) to each tube, mix well and then add the solution around the collagen gel, the solution will polymerize in 10 mins. After 20 mins, add DMEM+1% (or 5%) FBS with or without testing agent, 450 ul/well and incubate the plate in 37° C. CO2 incubator for up to 5 days. Take pictures on each day.

T1 sequence (P06756 31-889 limits assumed): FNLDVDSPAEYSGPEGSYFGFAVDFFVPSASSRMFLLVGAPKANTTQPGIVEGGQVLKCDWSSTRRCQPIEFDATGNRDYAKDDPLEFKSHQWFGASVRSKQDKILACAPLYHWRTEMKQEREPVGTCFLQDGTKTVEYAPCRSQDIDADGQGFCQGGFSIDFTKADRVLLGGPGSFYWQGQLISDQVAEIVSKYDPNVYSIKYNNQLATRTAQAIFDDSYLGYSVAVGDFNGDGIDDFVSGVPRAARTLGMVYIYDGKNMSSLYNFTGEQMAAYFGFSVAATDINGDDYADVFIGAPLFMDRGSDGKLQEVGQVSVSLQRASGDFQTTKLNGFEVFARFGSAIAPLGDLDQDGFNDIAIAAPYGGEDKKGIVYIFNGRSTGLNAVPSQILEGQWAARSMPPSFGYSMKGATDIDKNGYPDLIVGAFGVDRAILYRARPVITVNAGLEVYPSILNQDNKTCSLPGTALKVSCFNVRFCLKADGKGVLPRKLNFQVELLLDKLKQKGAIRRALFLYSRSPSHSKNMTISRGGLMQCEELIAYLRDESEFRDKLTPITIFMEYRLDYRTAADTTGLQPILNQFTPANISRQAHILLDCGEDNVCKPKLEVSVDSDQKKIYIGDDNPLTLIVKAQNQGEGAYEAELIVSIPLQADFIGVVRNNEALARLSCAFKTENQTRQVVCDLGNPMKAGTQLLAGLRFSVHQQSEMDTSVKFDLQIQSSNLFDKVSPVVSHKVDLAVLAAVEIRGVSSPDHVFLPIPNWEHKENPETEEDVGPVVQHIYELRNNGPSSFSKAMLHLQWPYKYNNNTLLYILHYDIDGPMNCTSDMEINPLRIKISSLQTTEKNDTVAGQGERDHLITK
T1 sequence (P06756 891-1048 partner limits assumed): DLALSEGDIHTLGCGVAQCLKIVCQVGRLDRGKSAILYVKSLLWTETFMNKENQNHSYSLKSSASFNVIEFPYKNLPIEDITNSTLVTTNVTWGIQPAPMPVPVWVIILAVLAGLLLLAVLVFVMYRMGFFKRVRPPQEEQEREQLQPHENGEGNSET
T1 sequence (P05106 27-788): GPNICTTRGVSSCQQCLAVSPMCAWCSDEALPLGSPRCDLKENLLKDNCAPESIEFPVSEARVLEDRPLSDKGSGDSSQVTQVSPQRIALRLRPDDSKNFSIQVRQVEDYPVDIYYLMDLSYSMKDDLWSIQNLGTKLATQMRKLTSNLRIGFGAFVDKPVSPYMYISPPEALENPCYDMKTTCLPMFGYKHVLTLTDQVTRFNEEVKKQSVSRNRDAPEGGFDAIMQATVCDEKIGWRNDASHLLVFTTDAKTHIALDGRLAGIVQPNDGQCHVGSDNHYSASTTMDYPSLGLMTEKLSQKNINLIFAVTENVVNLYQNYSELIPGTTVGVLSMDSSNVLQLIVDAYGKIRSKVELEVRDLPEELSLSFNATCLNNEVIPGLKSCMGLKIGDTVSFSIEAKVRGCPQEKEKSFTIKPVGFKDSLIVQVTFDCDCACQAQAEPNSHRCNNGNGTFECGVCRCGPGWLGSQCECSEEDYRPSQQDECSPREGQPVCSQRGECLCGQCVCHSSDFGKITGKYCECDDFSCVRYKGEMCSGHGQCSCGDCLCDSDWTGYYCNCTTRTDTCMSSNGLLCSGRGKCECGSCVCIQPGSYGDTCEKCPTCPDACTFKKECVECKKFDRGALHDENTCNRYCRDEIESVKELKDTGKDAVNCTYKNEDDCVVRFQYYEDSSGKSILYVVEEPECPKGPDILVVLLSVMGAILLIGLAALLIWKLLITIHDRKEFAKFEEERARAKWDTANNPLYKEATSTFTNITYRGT

On to `N[C@@H](Cc1cc(I)c(Oc2cc(I)c(O)c(I)c2)c(I)c1)C(=O)O` [T4, L-thyroxine], for which the “promotion of generation of new blood vessels from existing vessels” value in test [1] is reported as “two- to three-fold”. In addition, in test [2], the “time of maximal phosphorylation and nuclear translocation of ERK1/2” value was 30 min. Besides, the “Mean EC Migration (Fluorescence Units) + SD” value in test [3] is given as 13,083 ± 276 Fluorescence Units. Besides, the “reduction of [125I]T4 binding to purified αVβ3” value was “almost completely displaced” in test [4] (competitor 10^−4 M), “maximal” in test [4] (competitor 10^−5 M), 58% in test [4] (competitor 10^−6 M (total)) and 13% in test [4] (competitor 10^−7 M (total)). In addition, the EC50 (commonly the concentration needed to bring the measured effect to its halfway point) in test [4] (non-linear regression) was determined as 0.371 nM. In addition, the affinity in test [4] (non-linear regression), expressed as Kd, was 0.333 nM. The “wound healing (outmigrating cells), Day 3” value in test [5] was “increases wound healing”.
